From the supplement of paper PMC10307832

Columns and labels:
Assay in all cases: relative viability (nuclei count vs DMSO), 5 days (fraction); higher = more cells survive
XMD13-2 + Phenformin = compound: C1CC1C(=O)NC2=NNC3=C2C=CC(=C3)C4=CC(=CC=C4)C(=O)NC5CC5 [XMD13-2] + N=C(N)NC(=N)NCCc1ccccc1 [Phenformin] (partner 250 µM)
Summary of the method: (§1)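 Relative viability is defined as nuclei in treated wells over nuclei in vehicle wells. Duplicate plates were run and medians reported. Lung cancer cell lines in 1536-well plates were dosed by pin tool one day after seeding, with one drug or with a fixed anchor-drug dose plus five library-drug doses (not always all listed) in √10 steps, and nuclei were counted after 5 days.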

[1] = compound: Cc1ccc(C(=O)Nc2cccc(C(F)(F)F)c2)cc1Nc1cncc(C(N)=O)c1 [ALW-II-49-7] + CC(=O)c1c(C)c2cnc(Nc3ccc(N4CCNCC4)cn3)nc2n(C2CCCC2)c1=O [Palbociclib] (partner 0.5 µM)
Summary of the method: as §1

ALW-II-49-7 + Crizotinib = compound: Cc1ccc(C(=O)Nc2cccc(C(F)(F)F)c2)cc1Nc1cncc(C(N)=O)c1 [ALW-II-49-7] + C[C@@H](Oc1cc(-c2cnn(C3CCNCC3)c2)cnc1N)c1c(Cl)ccc(F)c1Cl [Crizotinib] (partner 1 µM)
Summary of the method: as §1

Dasatinib + Foretinib = compound: Cc1nc(Nc2ncc(C(=O)Nc3c(C)cccc3Cl)s2)cc(N2CCN(CCO)CC2)n1 [Dasatinib] + COc1cc2c(Oc3ccc(NC(=O)C4(C(=O)Nc5ccc(F)cc5)CC4)cc3F)ccnc2cc1OCCCN1CCOCC1 [Foretinib] (partner 0.25 µM)
Summary of the method: as §1

Cell Line | relative viability (XMD13-2 + Phenformin; first compound 0.05 µM) | relative viability (XMD13-2 + Phenformin; first compound 0.1581 µM) | relative viability (XMD13-2 + Phenformin; first compound 0.5 µM) | relative viability (XMD13-2 + Phenformin; first compound 1.581 µM) | relative viability (XMD13-2 + Phenformin; first compound 5 µM) | relative viability ([1]; first compound 0.08 µM) | relative viability ([1]; first compound 0.253 µM) | relative viability ([1]; first compound 0.8 µM) | relative viability ([1]; first compound 2.53 µM) | relative viability ([1]; first compound 8 µM) | relative viability (ALW-II-49-7 + Crizotinib; first compound 0.08 µM) | relative viability (ALW-II-49-7 + Crizotinib; first compound 0.253 µM) | relative viability (ALW-II-49-7 + Crizotinib; first compound 0.8 µM) | relative viability (ALW-II-49-7 + Crizotinib; first compound 2.53 µM) | relative viability (ALW-II-49-7 + Crizotinib; first compound 8 µM) | relative viability (Dasatinib + Foretinib; first compound 0.005 µM) | relative viability (Dasatinib + Foretinib; first compound 0.01581 µM) | relative viability (Dasatinib + Foretinib; first compound 0.05 µM) | relative viability (Dasatinib + Foretinib; first compound 0.1581 µM) | relative viability (Dasatinib + Foretinib; first compound 0.5 µM)
201T | 0.462 | 0.45 | 0.397 | 0.467 | 0.464 | 0.362 | 0.361 | 0.376 | 0.329 | 0.347 | 1.04 | 1.08 | 1.04 | 1.06 | 1.04 | 0.945 | 0.883 | 0.816 | 0.531 | 0.346
A549 | 0.547 | 0.152 | 0.153 | 0.12 | 0.232 |  |  |  |  |  | 0.753 | 0.852 | 0.596 | 0.754 | 0.624 | 0.876 | 0.817 | 0.59 | 0.3 | 0.119
A-427 | 0.37 | 0.252 | 0.334 | 0.263 | 0.282 | 0.491 | 0.523 | 0.556 | 0.561 | 0.51 | 1.01 | 0.816 | 0.855 | 0.878 | 0.969 | 0.971 | 1.04 | 0.974 | 0.694 | 0.599
ABC-1 | 0.219 | 0.24 | 0.242 | 0.267 | 0.26 | 0.48 | 0.647 | 0.59 | 0.665 | 0.711 | 0.978 | 0.92 | 0.838 | 1.05 | 1.03 | 1.08 | 0.906 | 0.948 | 0.692 | 0.487
BEN | 0.28 | 0.263 | 0.254 | 0.26 | 0.311 | 0.468 | 0.452 | 0.482 | 0.439 | 0.481 | 0.722 | 0.866 | 0.81 |  | 0.834 | 0.682 | 0.513 | 0.35 | 0.366 | 0.291
CAL-12T | 0.575 | 0.538 | 0.61 | 0.538 | 0.665 | 0.381 | 0.423 | 0.46 | 0.411 | 0.365 | 0.537 | 0.625 | 0.686 | 0.62 | 0.385 | 1.18 | 1.04 | 1.23 | 0.66 | 0.532
COR-L23 | 0.479 | 0.437 | 0.472 | 0.409 | 0.398 | 0.276 | 0.271 | 0.245 | 0.274 | 0.259 | 0.688 | 0.601 | 0.626 | 0.614 | 0.793 | 0.915 | 0.904 | 0.829 | 0.535 | 0.549
COR-L 105 | 0.589 | 0.532 | 0.455 | 0.506 | 0.452 | 0.391 | 0.333 | 0.41 | 0.421 | 0.423 | 0.737 | 0.805 | 0.864 | 0.653 | 0.72 | 0.786 | 0.955 | 0.64 | 0.377 | 0.264
Calu-6 |  |  |  |  |  |  |  |  |  |  | 0.736 | 0.737 | 0.718 | 0.904 | 0.554 | 0.738 | 0.702 | 0.633 | 0.513 | 0.469
ChaGo-K-1 | 0.549 | 0.416 | 0.507 | 0.489 | 0.474 | 0.949 | 0.98 | 0.954 | 0.887 | 0.98 | 1.13 | 1.12 | 1.08 | 0.972 | 1.04 | 0.922 | 0.881 | 0.874 | 0.725 | 0.667
EBC-1 |  |  |  |  |  |  |  |  |  |  | 0.176 | 0.177 | 0.203 | 0.171 | 0.182 | 0.106 |  | 0.0991 | 0.121 | 0.0976
EKVX | 0.224 | 0.222 | 0.229 | 0.212 | 0.238 | 0.454 | 0.344 | 0.413 | 0.278 | 0.359 | 0.989 | 0.79 | 0.969 | 0.718 | 0.818 | 0.757 | 0.84 | 0.753 | 0.455 | 0.135
EMC-BAC-2 | 0.534 | 0.52 | 0.586 | 0.511 | 0.561 | 0.499 | 0.519 | 0.488 | 0.437 | 0.391 | 0.677 | 0.728 | 0.737 | 0.588 | 0.509 | 0.862 | 0.733 | 0.573 | 0.297 | 0.242
EPLC-272H | 0.322 | 0.262 | 0.344 | 0.368 | 0.266 | 0.273 | 0.319 | 0.317 | 0.346 | 0.343 | 0.869 | 0.754 | 0.85 | 1.15 | 1 | 0.769 | 0.631 | 0.634 | 0.214 | 0.127
H3255 | 0.21 | 0.378 | 0.409 | 0.364 | 0.358 | 0.309 | 0.314 | 0.322 | 0.28 | 0.295 | 0.945 | 0.993 | 0.81 | 0.696 | 0.564 | 1.02 | 0.822 | 0.726 | 0.944 | 0.352
HARA | 0.477 | 0.438 | 0.474 | 0.44 | 0.485 | 0.239 | 0.265 | 0.249 | 0.261 | 0.254 | 0.914 | 0.982 | 1.01 | 1.25 | 1.23 | 0.826 | 0.504 | 0.541 | 0.207 | 0.136
HCC-15 | 0.609 | 0.523 | 0.546 | 0.456 | 0.407 | 0.729 | 0.722 | 0.704 | 0.712 | 0.68 | 0.805 | 0.86 | 0.786 | 0.831 | 0.886 | 1.09 | 0.919 | 0.876 | 0.719 | 0.57
